Test results: patent publication EP0369388B1, “Hydroxy-1,2,3,4-tetrahydroaminoacridines, a process for their preparation and their use as medicaments” (HOECHST-ROUSSEL PHARMACEUTICALS INCORPORATED, priority 1988, dated 1990)
pIC50: −log10 of the molar value. Counter-ions that a name gives are not always drawn. Like-named read-outs stand apart in the source and are kept apart here.

How the values were obtained:
acetylcholinesterase = acetylcholinesterase (Homo sapiens, UniProt P22303); experiment: biochemical
Chain of acetylcholinesterase (P22303 32-614): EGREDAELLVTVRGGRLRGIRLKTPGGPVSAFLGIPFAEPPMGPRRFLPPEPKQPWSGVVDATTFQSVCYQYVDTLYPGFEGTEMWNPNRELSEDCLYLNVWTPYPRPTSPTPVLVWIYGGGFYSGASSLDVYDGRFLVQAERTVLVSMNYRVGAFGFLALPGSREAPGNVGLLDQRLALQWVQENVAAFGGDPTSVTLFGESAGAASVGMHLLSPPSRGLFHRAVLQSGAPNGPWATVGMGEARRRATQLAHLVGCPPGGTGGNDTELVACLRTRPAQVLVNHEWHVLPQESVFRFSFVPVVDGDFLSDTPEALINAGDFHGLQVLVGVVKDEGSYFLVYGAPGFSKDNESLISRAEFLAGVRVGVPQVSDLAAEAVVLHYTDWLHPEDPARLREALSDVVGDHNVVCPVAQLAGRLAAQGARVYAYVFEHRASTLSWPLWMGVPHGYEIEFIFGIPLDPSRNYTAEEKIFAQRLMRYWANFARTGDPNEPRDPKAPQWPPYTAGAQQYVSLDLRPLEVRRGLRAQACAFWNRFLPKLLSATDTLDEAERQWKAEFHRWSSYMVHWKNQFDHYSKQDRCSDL
Experimental: The ability to inhibit acetylchlinesterase was determined by the photometric method of Ellman et al., Biochem. pharmacol.

mice = experiment: Dark Avoidance Assay (reversal of scopolamine induced memory deficit); type: in vivo
Experimental: This utility can also be ascertained by determining the ability of these compounds to restore cholinergically deficient memory in the Dark Avoidance Assay. In this assay mice are tested for their ability to remember an unpleasant stimulus for a period of 24 hours. A mouse is placed in a chamber that contains a dark compartment; a strong incadescent light drives it to the dark compartment, where an electric shock is administered through metal plates on the floor. The animal is removed from the testing apparatus and tested again, 24 hours later, for the ability to remember the electric shock.
If scopolamine, an anticholinergic that is known to cause memory impairment, is administered before an animal's initial exposure to the test chamber, the animal re-enters the dark compartment shortly after being placed in the test chamber 24 hours later. This effect of scopolamine is blocked by an active test compound, resulting in a greater interval before re-entry into the dark compartment.
The results for an active compound are expressed as the percent of a group of animals in which the effect of scopolamine is blocked, as manifested by an increased interval between being placed in the test chamber and re-entering the dark compartment.

[1] = Acetylcholinesterase Inhibition, read-out: IC50 (molar conc.)
[2] = Dose 5.0 mg/kg of body weight, s.c, mice, retest after 24 hours

SMILES	pIC50 (acetylcholinesterase)	pIC50 (acetylcholinesterase; [1])	also measured
CCCCC(=O)OC1CCc2nc3ccccc3c(N)c2C1 (stereo not shown) [2-Valeryloxy-1,2,3,4-tetrahydro-9-acridinamine, fumarate]	4.92	–	–
CN(C)C=Nc1c2c(nc3ccccc13)CCC(O)C2 (stereo not shown) [2-Hydroxy-N-(dimethylaminomethylene)-1,2,3,4-tetrahydro-9-acridinamine]	–	< 3.00	–
CNC(=O)Oc1ccc2c(c1)[C@]1(C)CCN(C)[C@@H]1N2C [Physostigmine, reference compound]	–	–	% of Animals with Scopolamine Induced Memory Deficit Reversal (mice; mouse, in vivo, 0.31 mg/kg): 20%
CCCCCCCCC(=O)OC1CCc2nc3ccccc3c(N)c2C1 (stereo not shown) [2-Nonanoyloxy-1,2,3,4-tetrahydro-9-acridinamine, fumarate]	–	< 3.00	–
CC(=O)OC1CCc2nc3ccccc3c(N)c2C1 (stereo not shown) [2-Acetoxy-1,2,3,4-tetrahydro-9-acridinamine]	–	5.19	% of Animals with Scopolamine Induced Memory Deficit Reversal (mice; [2]): 29%
Nc1c2c(nc3ccccc13)CCC(O)C2.O=C(O)/C=C\C(=O)O (stereo not shown) [9-Amino-1,2,3,4-tetrahydroacridin-2-ol, maleate]	–	5.28	% of Animals with Scopolamine Induced Memory Deficit Reversal (mice; [2]): 20%
CCC(=O)OC1CCc2nc3ccccc3c(N)c2C1 (stereo not shown) [2-Propionyloxy-1,2,3,4-tetrahydro-9-acridinamine, fumarate hemihydrate]	–	–	% of Animals with Scopolamine Induced Memory Deficit Reversal (mice; [2]): 13%
CCCCCC(=O)OC1CCc2nc3ccccc3c(N)c2C1.O=C(O)/C=C/C(=O)O (stereo not shown) [2-Hexanoyloxy-1,2,3,4-tetrahydro-9-acridinamine, fumarate]	–	4.72	% of Animals with Scopolamine Induced Memory Deficit Reversal (mice; Dose 0.63 mg/kg of body weight, s.c, mice, retest after 24 hours): 25%
Nc1c2c(nc3ccccc13)C(OCc1ccccc1)CCC2 (stereo not shown) [4-Benzyloxy-1,2,3,4-tetrahydro-9-acridinamine]	3.09	–	–
CCCC(=O)OC1CCc2nc3ccccc3c(N)c2C1 (stereo not shown) [2-Butyryloxy-1,2,3,4-tetrahydro-9-acridinamine, fumarate]	5.32	–	–
CCCCCCCCCC(=O)OC1CCc2nc3ccccc3c(N)c2C1 (stereo not shown) [2-Decanoyloxy-1,2,3,4-tetrahydro-9-acridinamine, fumarate]	< 3.00	–	–
Nc1c2c(nc3ccccc13)C(O)CCC2 (stereo not shown) [9-Amino-1,2,3,4-tetrahydroacridinamin-4-ol, hemifumarate]	–	5.72	–
CCCCCCCCCCCC(=O)OC1CCc2nc3ccccc3c(N)c2C1 (stereo not shown) [2-Lauroyloxy-1,2,3,4-tetrahydro-9-acridinamine]	3.80	–	–
CCCCCCCC(=O)OC1CCc2nc3ccccc3c(N)c2C1 (stereo not shown) [2-Octanoyloxy-1,2,3,4-tetrahydro-9-acridinamine, fumarate]	4.64	–	–
CCCCCCC(=O)OC1CCc2nc3ccccc3c(N)c2C1 (stereo not shown) [2-Heptanoyloxy-1,2,3,4-tetrahydro-9-acridinamine, fumarate]	–	4.51	–
Nc1c2c(nc3ccccc13)CCC(OCc1ccccc1)C2 (stereo not shown) [2-Benzyloxy-1,2,3,4-tetrahydro-9-acridinamine]	< 3.00	–	–
